The results in this text go back to US20250221966A1, “RXFP1 AGONISTS” (BRISTOL-MYERS SQUIBB COMPANY, priority 2021, published 2025).

For the test, the target named is T1, human RXFP1 (Homo sapiens, UniProt Q9HBX9).
T1 construct: expressed in transfected cells
T1 sequence (Q9HBX9 1-757): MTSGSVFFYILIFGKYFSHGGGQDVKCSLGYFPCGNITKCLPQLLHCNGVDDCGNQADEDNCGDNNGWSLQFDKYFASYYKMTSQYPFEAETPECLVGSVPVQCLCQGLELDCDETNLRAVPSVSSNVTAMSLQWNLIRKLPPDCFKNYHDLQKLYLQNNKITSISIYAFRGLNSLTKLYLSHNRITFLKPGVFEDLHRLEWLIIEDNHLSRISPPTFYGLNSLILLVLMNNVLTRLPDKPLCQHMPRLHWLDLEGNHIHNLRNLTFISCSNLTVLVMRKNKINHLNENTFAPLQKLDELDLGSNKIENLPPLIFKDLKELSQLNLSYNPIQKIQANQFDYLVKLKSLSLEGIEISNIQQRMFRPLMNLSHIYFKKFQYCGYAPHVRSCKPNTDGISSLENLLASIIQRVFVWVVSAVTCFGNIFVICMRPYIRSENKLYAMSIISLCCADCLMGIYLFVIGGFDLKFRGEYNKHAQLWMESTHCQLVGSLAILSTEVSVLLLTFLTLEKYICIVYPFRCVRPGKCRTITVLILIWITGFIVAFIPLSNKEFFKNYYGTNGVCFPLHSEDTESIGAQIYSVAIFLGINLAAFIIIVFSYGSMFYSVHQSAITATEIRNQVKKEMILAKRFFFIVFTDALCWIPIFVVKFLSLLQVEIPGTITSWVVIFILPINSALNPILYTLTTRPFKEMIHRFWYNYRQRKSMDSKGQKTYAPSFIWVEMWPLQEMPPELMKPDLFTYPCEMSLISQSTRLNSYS
Description: RXFP1 cAMP assay (hRXFP1 HEK293 cAMP assay, HTRF). The format is cell-based. To be noted: HEK293 cells stably expressing human RXFP1, 30 min at room temperature, read-out: cAMP hRXFP1 HEK293 Assay EC50. Summed up: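 Intracellular cAMP was read by HTRF, with potency fitted to a 4-parameter logistic curve. Compound exposure (0.010 nM–50 μM final, 2% DMSO) lasted 30 min at room temperature. Cells were hRXFP1-HEK293 at 1500 per well in IBMX-containing (0.5 mM) HEPES-buffered HBSS.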

Turning to `COc1cc(C)c(C2=NOC3CC(CO)CC23)cc1C(=O)N[C@H]1[C@@H](C(=O)Nc2ccc(F)c(C(F)(F)F)c2)[C@H]2CC[C@@H]1/C2=C\C1CC1` (stereo partly drawn) [compound 738], the EC50 was 3.3 nM.

Regarding `COc1ccc(N2CC(CN)CC2=O)cc1C(=O)N[C@H]1[C@@H](C(=O)Nc2ccc(F)c(C(F)(F)F)c2)[C@H]2CC[C@@H]1/C2=C\C1CC1` (stereo partly drawn) [compound 712], the EC50 amounted to 1600 nM.

Take `O=C(N[C@H]1[C@@H](C(=O)Nc2ccc(F)c(C(F)(F)F)c2)[C@H]2CC[C@@H]1/C2=C\C1CC1)c1cc(C2=NOC3CC(CO)CC23)cc(F)c1OCC1CC1` (stereo partly drawn) [compound 794]: the half-maximal effective concentration (EC50) was determined as 3.2 nM.

Take `CC(C)=C1C2CCC1[C@H](C(=O)Nc1ccc(F)c(C(F)(F)F)c1)[C@@H]2NC(=O)c1ccccc1OC(C)C` (stereo partly drawn) [compound 115]: the 50% effective concentration (EC50) was determined as 1100 nM.

For `O=C(N[C@H]1[C@@H](C(=O)Nc2ccc(F)c(C(F)(F)F)c2)[C@H]2CC[C@@H]1/C2=C\C1CC1)c1cc(C2=NOC3CC(CO)CC23)ccc1F` (single isomer, unassigned) [compound 473], the concentration giving a half-maximal response (EC50) was 4.9 nM.

In the case of `COc1ccc(C2=NOC(C3(O)CC3)C2)cc1C(=O)N[C@H]1[C@@H](C(=O)Nc2ccc(F)c(C(F)(F)F)c2)[C@H]2CC[C@@H]1/C2=C\C1CC1` (single isomer, unassigned) [compound 491], the EC50 is 8.7 nM.

As to `C[C@@H](NC(=O)[C@@H]1[C@H](NC(=O)c2cc(C3=NOC4CC(CO)CC34)cc(F)c2OCC2CC2)[C@@H]2CC[C@H]1/C2=C/C1CC1)C1(C)CC1` (stereo partly drawn) [compound 758], the EC50 worked out at 0.9 nM.

As for `COc1ccc(-c2cc(C3=NOC(C(=O)O)C3)ccc2F)cc1C(=O)N[C@H]1[C@@H](C(=O)Nc2ccc(F)c(C(F)(F)F)c2)[C@H]2CC[C@@H]1/C2=C\C1CCCC1` (stereo partly drawn) [compound 913], the EC50 amounted to 9 nM.

Take `COc1ccc(-c2cccc3c2CC(=O)N3)cc1C(=O)N[C@H]1[C@@H](C(=O)Nc2ccc(F)c(C(F)(F)F)c2)[C@H]2CC[C@@H]1/C2=C\C1CC1` [compound 890]: the half-maximal effective concentration (EC50) came out at 2.4 nM.

Take `COc1ccc(C2=NO[C@H]3[C@@H]2[C@@H](O)C[C@H]3O)cc1C(=O)N[C@H]1[C@@H](C(=O)Nc2ccc(F)c(C(F)(F)F)c2)[C@H]2CC[C@@H]1/C2=C\C1CC1` (single isomer, unassigned) [compound 539]: the EC50 turned out to be 29.3 nM.

For `COc1ccc(C2=NOC(CNC(=O)OC(C)(C)C)C2)cc1C(=O)N[C@@H]1C2CCC(/C2=C/C(F)(F)F)[C@@H]1C(=O)Nc1ccc(F)c(C(F)(F)F)c1` (stereo partly drawn) [compound 403], the half-maximal effective concentration (EC50) is 1390 nM.

With `COc1ccc(C2=NOC(C(=O)O)C2)cc1C(=O)N[C@@H]1C2CCC(/C2=C/C2CCC2)[C@@H]1C(=O)Nc1ccc(F)c(C(F)(F)F)c1` (stereo partly drawn) [compound 387], the concentration giving a half-maximal response (EC50) turned out to be 11 nM.

In the case of `COc1ccc(C2=NOC(CC(C)(C)O)C2)cc1C(=O)N[C@H]1[C@@H](C(=O)Nc2ccc(F)c(C(F)(F)F)c2)[C@H]2CC[C@@H]1/C2=C\C1CC1` (single isomer, unassigned) [compound 499], the EC50 came to 11 nM.

On to `CCOC(=O)C(NC(=O)C1CCOCC1)c1cnn(-c2ccc(OC)c(C(=O)N[C@@H]3C4CCC(/C4=C/C(F)(F)F)[C@@H]3C(=O)Nc3ccc(F)c(C(F)(F)F)c3)c2)c1` (stereo partly drawn) [Example 346], for which the 50% effective concentration (EC50) was determined as 169 nM.

In the case of `COc1ccc(C2=NOC3(CO)CCCC23)cc1C(=O)N[C@H]1[C@@H](C(=O)Nc2ccc(F)c(C(F)(F)F)c2)[C@H]2CC[C@@H]1/C2=C\C1CC1` (single isomer, unassigned) [compound 548], the half-maximal effective concentration (EC50) is 32.6 nM.

On to `COc1ccc(-c2cc(C(O)C(=O)O)ccc2F)cc1C(=O)NC1C2CCC(/C2=C/C2CCC2)C1C(=O)Nc1ccc(F)c(C(F)(F)F)c1` (stereo not drawn) [compound 356], for which the concentration giving a half-maximal response (EC50) amounted to 5 nM.

Regarding `COc1c(F)cc(-c2cc([C@H](OC(=O)NC3CCC3)C(F)(F)F)ccc2F)cc1C(=O)N[C@H]1[C@@H](C(=O)N[C@H](C)C2(C)CC2)[C@H]2CC[C@@H]1/C2=C\C1CC(F)(F)C1` [compound 970], the EC50 was 2 nM.

`COc1ccc(-c2cccc3c2ccn3C(=O)OC(C)(C)C)cc1C(=O)N[C@H]1[C@@H](C(=O)Nc2ccc(F)c(C(F)(F)F)c2)[C@H]2CC[C@@H]1/C2=C\C1CC1` [compound 880]: the EC50 worked out at 1.6 nM.

For `COc1c(F)cc(C2=NOC3CC(CO)CC23)cc1C(=O)N[C@@H]1C2CCC(/C2=C/C2CC2)[C@@H]1C(=O)NC12CC(C#N)(C1)C2` (stereo partly drawn) [compound 772], the EC50 turned out to be 3.8 nM.

On to `COc1ccc(C2=NOC(C(C)O)C2)cc1C(=O)N[C@H]1[C@@H](C(=O)Nc2ccc(F)c(C(F)(F)F)c2)[C@H]2CC[C@@H]1/C2=C\C1CC1` (single isomer, unassigned) [compound 595], for which the half-maximal effective concentration (EC50) was 92.7 nM.

Consider `COc1ccc(-c2cc(C(=O)O)ccc2F)cc1C(=O)N[C@@H]1C2CCC(/C2=C/C2CC2)[C@@H]1C(=O)NC1CC(F)(F)C1` (stereo partly drawn) [compound 304], for which the EC50 worked out at 1710 nM.

As to `COc1c(F)cc(C2=NOC3CC(CO)CC23)cc1C(=O)N[C@H]1[C@@H](C(=O)N[C@H](C)C2(C(F)(F)F)CC2)[C@H]2CC[C@@H]1/C2=C\C1CC1` (stereo partly drawn) [compound 869], the EC50 stood at 1.4 nM.

Consider `COc1ccc(-c2cc(C(O)C(=O)O)ccc2F)cc1C(=O)NC1C2CCC(/C2=C/CCC(C)(C)C)C1C(=O)Nc1ccc(F)c(C(F)(F)F)c1` (stereo not drawn) [compound 354], for which the EC50 was found to be 11 nM.

On to `O=C(N[C@H]1[C@@H](C(=O)Nc2ccc(F)c(C(F)(F)F)c2)[C@H]2CC[C@@H]1/C2=C\C1CC1)c1cc(C2=NOC3COCC23)ccc1F` (single isomer, unassigned) [compound 514], for which the 50% effective concentration (EC50) turned out to be 17.2 nM.

For the compound `COc1ccc(C2=NOC3COCC23)cc1C(=O)N[C@H]1[C@@H](C(=O)N[C@H](C)c2ccccc2C(F)(F)F)[C@H]2CC[C@@H]1/C2=C\C1CC1` (stereo partly drawn) [compound 510], the EC50 amounted to 15.2 nM.

With `COc1ccc(-c2cnc3c(cnn3CC(=O)O)c2)cc1C(=O)N[C@@H]1C2CCC(/C2=C/C(F)(F)F)[C@@H]1C(=O)Nc1ccc(F)c(C(F)(F)F)c1` (stereo partly drawn) [compound 317], the EC50 was 31 nM.

For `CN(C)c1c(Cl)cc(C2=NOC3COCC23)cc1C(=O)N[C@H]1[C@@H](C(=O)Nc2ccc(F)c(C(F)(F)F)c2)[C@H]2CC[C@@H]1/C2=C\C(F)(F)F` (single isomer, unassigned) [compound 670], the EC50 was 448 nM.

Consider `COc1c(F)cc(C2=NOC3CC(CO)CC23)cc1C(=O)N[C@H]1[C@@H](C(=O)N[C@H](C)C2(C)CC2)[C@H]2CC[C@@H]1/C2=C\C1CCCC1` (stereo partly drawn) [compound 811], for which the EC50 was 0.6 nM.

As to `COc1ccc(-c2cc(-c3nnn[nH]3)ccc2F)cc1C(=O)N[C@@H]1C2CCC(/C2=C/c2ccccc2)[C@@H]1C(=O)Nc1ccc(F)c(C(F)(F)F)c1` (stereo partly drawn) [compound 152], the concentration for a half-maximal effect (EC50) was 8 nM.

Take `COc1ccc(-c2cc(C(=O)O)ccc2F)cc1C(=O)N[C@@H]1C2CCC(/C2=C/C2CC2)[C@@H]1C(=O)N[C@H](C)c1ccccc1` (stereo partly drawn) [compound 261]: the EC50 was 1880 nM.

Consider `COc1ccc(-c2cc(C(=O)NC(C)C)ccc2F)cc1C(=O)N[C@@H]1C2CCC(C2=C(C)C)[C@@H]1C(=O)Nc1ccc(F)c(C(F)(F)F)c1` (stereo partly drawn) [compound 153], for which the EC50 came out at 140 nM.

As for `COc1cccc(/C=C2\C3CCC2[C@H](C(=O)Nc2ccc(F)c(C(F)(F)F)c2)[C@@H]3NC(=O)c2cc(F)c(F)cc2OC)c1` (stereo partly drawn) [compound 19], the EC50 stood at 720 nM.

As for `CC[C@H](NC(=O)[C@@H]1[C@H](NC(=O)c2cc(C3=NOC4COCC34)ccc2OC)[C@@H]2CC[C@H]1/C2=C/C1CC1)C1CCC1` (stereo partly drawn) [compound 676], the 50% effective concentration (EC50) turned out to be 486 nM.
